Measurements as given in US10434083B2, “Transmammary delivery of cyclooxygenase-2 inhibitors for analgesia in neonates” (Iowa State University Research Foundation, Inc., priority 2018, dated 2019).
Like-named read-outs stand apart in the source and are kept apart here.

Test: Firocoxib pharmacokinetics in sows following IM administration (Example 2)
Assay type: in vivo, swine
Details: for AUC(0-t) / AUC(0-inf) / CL/F / Cmax / MRT inf / Tmax / MRT last / Vd/F / half-life: female, Yorkshire×Landrace, plasma; for AUC(0-t) / AUC(0-inf): im; for MRT last: read-out: MRT0-last; for Vd/F: read-out: VZ/F; for half-life: read-out: plasma elimination half-life (T1/2λz), range over dose groups
Procedure: Protocols involved intramuscular injection of Firocoxib to lactating sows at either 0.5, 1.0, 1.5 or 2 mg/kg, and analysis in sows and select piglets at 21 days post treatment. Pregnant Yorkshire×Landrace sows (mean±SEM bodyweight, 250.3±7.61 kg) that were approximately 1 week before farrowing were sourced from a commercial swine farm. Each sow was examined by a veterinarian to confirm that she was healthy and pregnant. A unique numerical ear tag (Allflex Global Ear Tags, Allflex USA, Inc., DFW Airport, TX) was placed in the right ear of each sow for identification. The sows were housed in a commercial swine operation at MVS (West Point, Nebr.) in accordance with the recommendations in the Guide for the Care and Use of Agricultural Animals in Agricultural Use and Research and Teaching (Guide for the Care and Use of Agricultural Animals in Agricultural Research and Teaching, 2010). Sows were placed in Quad- or Euro-style farrowing stalls (Thorp Equipment, Thorp, Wis.), depending on availability. Regardless of stall type, each sow was housed in a farrowing crate measuring 0.6 m×2.1 m. Quad and Euro crates had piglet creep areas of 7.0 m^2 and 6.4 m^2, respectively. After farrowing, a heat lamp was provided on one side of the creep area for the piglets in each crate. All sows were fed a diet that met or exceeded National Research Council (NRC, 2012) nutrient requirements and water was provided ad libitum. Each litter provided at least six male and three female piglets for sampling with the exception of one sow that had 5 males and 4 females in the litter, and one sow that had 3 males and 6 females in the litter. Piglets were clinically examined and weighed on Study Day 0 prior to dosing. Cross fostering of the litters was permitted. Bodyweights were used to randomly assign sows to 1 of 4 treatment groups (n=4 sows/group) as detailed in Table 3.
A sample size of 4 sows was selected to describe the pharmacokinetics of firocoxib. For the comparison of plasma cortisol concentrations and average daily gain in bodyweight (ADG), a sample size of 36 piglets/treatment group was calculated to provide Statistical Power of 0.8 assuming an alpha of 0.05, sigma of 0.54 and delta of 0.20. At the time of study commencement (T0), sows received a single dose of firocoxib (Equioxx Injection, Merial, Duluth, Ga.) (Lot number 4VP07, Expiration Date November 2017) administered at either 0.5 mg/kg, 1.0 mg/kg, 1.5 mg/kg, or 2.0 mg/kg by IM injection into the right lateral neck using an 18-gauge, 1.5-inch needle attached to a 20-mL syringe (Table 3). In cases where the calculated dose volume exceeded 20-mL, the remaining volume was administered via IM injection in the left lateral neck muscle.
Blood samples for firocoxib determination were collected from the sows and three piglets/litter (two male and one female piglet at each time point) at 0, 2, 4, 6, 8, 12, 24, 48, 72, 96, and 120 h post-drug injection to the sow. The blood sample from each sow (8 mL/sample) was collected via the left or right jugular vein using a 25.4-mm, 16-gauge hypodermic needle (Air-Tite Products, Virginia Beach, Va.) attached to a 12-mL Luer-Lok syringe (TycoHealth Care, Mansfield, Mass.). During blood collection, a pig snare was used for manual restraint of each sow in her crate. The blood samples (2 mL/sample) from the piglets were collected from the left or right cranial vena cava using a 3.8-cm, 20-gauge hypodermic needle (TycoHealth Care, Mansfield, Mass.) attached to a 3-mL syringe (TycoHealth Care, Mansfield, Mass.). Physical restraint of the piglet was achieved by placing the animal in a supine position during sample collection. Blood samples were transferred to 6-mL evacuated tubes that contained lithium heparin (Vacuette plasma tubes, Greiner Bio-One, Monroe, N.C.) that were stored on ice for up to 2 h before processing. The blood samples were centrifuged for 10 min at 1,500×g. The plasma was then removed, placed in cryovials, and frozen at −80° C. until analysis. […]

`CC1(C)OC(=O)C(OCC2CC2)=C1c1ccc(S(C)(=O)=O)cc1` [firocoxib] gave an AUC(0-t) (pig, 0.5 mg/kg, sow dose 0.5 mg/kg (Table 7), read-out: Sow AUClast) of 1530 ng·h/mL, an AUC(0-inf) (pig, 0.5 mg/kg, sow dose 0.5 mg/kg (Table 7), read-out: Sow AUC∞) of 1590 ng·h/mL and an AUC(0-t) (pig, 0.5 mg/kg, sows, 0.5 mg/kg IM, mean, read-out: AUC0-24h) of 1030 ng·h/mL. The AUC(0-t) (pig, 0.5 mg/kg, sows, 0.5 mg/kg IM, mean, read-out: AUC0-last) was 1530 ng·h/mL, the AUC(0-inf) (pig, 0.5 mg/kg, sows, 0.5 mg/kg IM, mean, read-out: AUCINF) was 1590 ng·h/mL and the AUC(0-t) (pig, 1 mg/kg, sow dose 1.0 mg/kg (Table 7), read-out: Sow AUClast) was 5330 ng·h/mL. For the same compound, the AUC(0-inf) (pig, 1 mg/kg, sow dose 1.0 mg/kg (Table 7), read-out: Sow AUC∞) was 5620 ng·h/mL, the AUC(0-t) (pig, 1 mg/kg, sows, 1.0 mg/kg IM, mean, read-out: AUC0-24h) was 2670 ng·h/mL and the AUC(0-t) (pig, 1 mg/kg, sows, 1.0 mg/kg IM, mean, read-out: AUC0-last) was 5330 ng·h/mL. For the same compound, the AUC(0-inf) (pig, 1 mg/kg, sows, 1.0 mg/kg IM, mean, read-out: AUCINF) was 5620 ng·h/mL, the AUC(0-t) (pig, 1.5 mg/kg, sow dose 1.5 mg/kg (Table 7), read-out: Sow AUClast) was 8320 ng·h/mL and the AUC(0-inf) (pig, 1.5 mg/kg, sow dose 1.5 mg/kg (Table 7), read-out: Sow AUC∞) was 8660 ng·h/mL. For the same compound, the AUC(0-t) (pig, 1.5 mg/kg, sows, 1.5 mg/kg IM, mean, read-out: AUC0-24h) was 4840 ng·h/mL, the AUC(0-t) (pig, 1.5 mg/kg, sows, 1.5 mg/kg IM, mean, read-out: AUC0-last) was 8320 ng·h/mL and the AUC(0-inf) (pig, 1.5 mg/kg, sows, 1.5 mg/kg IM, mean, read-out: AUCINF) was 8660 ng·h/mL. The AUC(0-t) (pig, 2 mg/kg, sow dose 2.0 mg/kg (Table 7), read-out: Sow AUClast) was 12700 ng·h/mL, the AUC(0-inf) (pig, 2 mg/kg, sow dose 2.0 mg/kg (Table 7), read-out: Sow AUC∞) was 13700 ng·h/mL and the AUC(0-t) (pig, 2 mg/kg, sows, 2.0 mg/kg IM, mean, read-out: AUC0-24h) was 6640 ng·h/mL. For the same compound, the AUC(0-t) (pig, 2 mg/kg, sows, 2.0 mg/kg IM, mean, read-out: AUC0-last) was 12700 ng·h/mL, the AUC(0-inf) (pig, 2 mg/kg, sows, 2.0 mg/kg IM, mean, read-out: AUCINF) was 13700 ng·h/mL and the CL/F (pig, sows, 0.5 mg/kg IM, mean) was 5.5 mL/min/kg. The Cmax (pig, sows, 0.5 mg/kg IM, mean) was 108 ± 15.2 ng/mL, the MRT inf (pig, sows, 0.5 mg/kg IM, mean) was 29.4 h and the Tmax (pig, sows, 0.5 mg/kg IM, mean) was 3.5 h. It also gave an MRT last (pig, sows, 0.5 mg/kg IM, mean) of 27.2 h, a Vd/F (pig, sows, 0.5 mg/kg IM, mean) of 13.8 L/kg and a CL/F (pig, sows, 1.0 mg/kg IM, mean) of 3.5 mL/min/kg. It also gave a Cmax (pig, sows, 1.0 mg/kg IM, mean) of 158 ± 24.9 ng/mL, an MRT inf (pig, sows, 1.0 mg/kg IM, mean) of 34.8 h and a Tmax (pig, sows, 1.0 mg/kg IM, mean) of 5.5 h. It also gave an MRT last (pig, sows, 1.0 mg/kg IM, mean) of 29.4 h, a Vd/F (pig, sows, 1.0 mg/kg IM, mean) of 7.82 L/kg and a CL/F (pig, sows, 1.5 mg/kg IM, mean) of 3.17 mL/min/kg. The Cmax (pig, sows, 1.5 mg/kg IM, mean) was 344 ± 78.9 ng/mL, the MRT inf (pig, sows, 1.5 mg/kg IM, mean) was 33.5 h and the Tmax (pig, sows, 1.5 mg/kg IM, mean) was 3 h. For the same compound, the MRT last (pig, sows, 1.5 mg/kg IM, mean) was 26.4 h, the Vd/F (pig, sows, 1.5 mg/kg IM, mean) was 9.12 L/kg and the CL/F (pig, sows, 2.0 mg/kg IM, mean) was 3 mL/min/kg. It also gave a Cmax (pig, sows, 2.0 mg/kg IM, mean) of 453 ± 90.3 ng/mL, an MRT inf (pig, sows, 2.0 mg/kg IM, mean) of 36.8 h and a Tmax (pig, sows, 2.0 mg/kg IM, mean) of 4.5 h. For the same compound, the MRT last (pig, sows, 2.0 mg/kg IM, mean) was 29.1 h, the Vd/F (pig, sows, 2.0 mg/kg IM, mean) was 7.75 L/kg and the half-life (pig, sows, 0.5-2.0 mg/kg IM) was 26.7 to 31.1 h. The half-life (swine, sows, 0.5-2.0 mg/kg IM) was 26.7 to 31.1 h, the AUC_Exp (sows, 0.5 mg/kg IM, mean) was 3.39% and the AUMC (sows, 0.5 mg/kg IM, mean) was 31765 h^2 × ng/mL. It also gave a T1/2λZ (sows, 0.5 mg/kg IM, mean) of 28.87 h, a λZ (sows, 0.5 mg/kg IM, mean) of 0.03 h⁻¹ and an AUC_Exp (sows, 1.0 mg/kg IM, mean) of 4.15%. The AUMC (sows, 1.0 mg/kg IM, mean) was 164892 h^2 × ng/mL, the T1/2λZ (sows, 1.0 mg/kg IM, mean) was 26.70 h and the λZ (sows, 1.0 mg/kg IM, mean) was 0.03 h⁻¹. The AUC_Exp (sows, 1.5 mg/kg IM, mean) was 4.98%, the AUMC (sows, 1.5 mg/kg IM, mean) was 215365 h^2 × ng/mL and the T1/2λZ (sows, 1.5 mg/kg IM, mean) was 29.89 h. It also gave a λZ (sows, 1.5 mg/kg IM, mean) of 0.02 h⁻¹, an AUC_Exp (sows, 2.0 mg/kg IM, mean) of 5.61% and an AUMC (sows, 2.0 mg/kg IM, mean) of 392753 h^2 × ng/mL. For the same compound, the T1/2λZ (sows, 2.0 mg/kg IM, mean) was 31.09 h, the λZ (sows, 2.0 mg/kg IM, mean) was 0.02 h⁻¹ and the “volume of distribution, range over dose groups” value (sows, 0.5-2.0 mg/kg IM) was 7.75 to 13.8 L/kg. For the same compound, the “volume of distribution in sows, fold larger than flunixin” value (vs flunixin (0.30 L/kg) in pigs) was “approximately 26 fold”, the “elimination half-life in sows, fold longer than flunixin” value (vs flunixin (7.5 h) in pigs) was about 4 fold and the “volume of distribution in sows, fold greater than ketoprofen” value (vs ketoprofen (0.35 L/kg) in pigs) was about 22 fold. The “elimination half-life in sows, fold longer than ketoprofen” value (vs ketoprofen (3 h) in pigs) was “approximately 10 fold”, the “volume of distribution in sows, fold greater than meloxicam” value (vs meloxicam (0.42 L/kg) in pigs) was about 18 fold and the “elimination half-life in sows, fold longer than meloxicam” value (vs meloxicam (6 h) in pigs) was about 5 fold.
